# Assay results: US6303591A, “21-hydroxy-6,19-oxidoprogesterone (21OH-6OP) and its use as medicament for treating excess of glucocorticoids” (Applied Research Systems ARS Holding NV, priority 1997, dated 2001)
# Entries after “also recorded” stand apart in the source; their conditions may differ.
# Biological target: T1, MR from rat kidney (kidney cytosol) (Rattus norvegicus, UniProt P22199)
# T1 sequence (P22199 1-981): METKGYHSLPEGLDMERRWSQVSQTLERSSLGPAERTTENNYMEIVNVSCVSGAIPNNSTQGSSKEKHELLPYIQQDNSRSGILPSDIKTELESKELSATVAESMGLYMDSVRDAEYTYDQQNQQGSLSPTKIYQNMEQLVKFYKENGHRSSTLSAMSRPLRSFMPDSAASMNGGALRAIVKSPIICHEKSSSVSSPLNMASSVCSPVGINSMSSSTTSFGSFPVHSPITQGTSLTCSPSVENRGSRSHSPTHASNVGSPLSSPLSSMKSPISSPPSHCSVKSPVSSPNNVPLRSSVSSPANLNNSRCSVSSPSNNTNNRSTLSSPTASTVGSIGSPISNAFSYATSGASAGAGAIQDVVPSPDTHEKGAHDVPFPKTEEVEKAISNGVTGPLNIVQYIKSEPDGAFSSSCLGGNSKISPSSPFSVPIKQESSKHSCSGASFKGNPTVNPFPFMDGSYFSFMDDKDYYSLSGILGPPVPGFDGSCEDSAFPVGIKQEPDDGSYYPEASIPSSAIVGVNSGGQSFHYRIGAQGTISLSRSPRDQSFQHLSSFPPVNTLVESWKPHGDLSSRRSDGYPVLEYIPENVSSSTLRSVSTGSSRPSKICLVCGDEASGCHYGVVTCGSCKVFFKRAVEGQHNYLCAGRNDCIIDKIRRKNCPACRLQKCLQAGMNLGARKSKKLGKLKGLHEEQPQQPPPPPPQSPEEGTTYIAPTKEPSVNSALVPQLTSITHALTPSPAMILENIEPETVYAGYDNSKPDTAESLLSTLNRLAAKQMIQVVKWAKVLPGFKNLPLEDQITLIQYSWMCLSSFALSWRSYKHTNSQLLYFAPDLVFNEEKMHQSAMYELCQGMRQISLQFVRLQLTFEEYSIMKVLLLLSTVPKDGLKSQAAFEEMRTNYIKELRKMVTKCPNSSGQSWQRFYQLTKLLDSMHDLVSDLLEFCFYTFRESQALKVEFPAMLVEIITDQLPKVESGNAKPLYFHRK
# Assay: competition with (^3 H)-ALDO for MR, rat kidney cytosol
# Assay type: binding
# Experimental: Binding Assay: Adrenalectomized male Sprague-Dawley rats were bled to death by heart puncture. Cold 0.9% NaCI was injected profusely through the aorta until organs were completely blanched. Thymuses were used as a source of GR and kidneys as a source of MR. Homogenization and incubation conditions were performed as previously described, (14) and (15), respectively. Briefly, homogenates performed in cold TEGM buffer at pH 7.4 (0.1 M Tris-HCl, 10 mM EDTA, 10 mM α-mercaptoethanol, 20 mM Na2 MoO4, 25% glycerol, 0.1 mM PMSF, 2.0 TIU/ml aprotinin and 1 mg% Leupeptin) were centrifuged at 37,000 rev. for 30 min at 0° C. Supernatants from this centrifugation are referred to as "cytosol". […] (^3 H)-P4 binding to uterus PR was assayed on immature female rats according to Jordan et al (16).
# Relative binding affinity (RBA) for partially purified CBG was determined by steroid competition for (^3 H)-B binding as described previously (14).
# The displacement curve of 6,19-oxidoprogesterone is included for comparative purposes.
smiles,measurement,setting,value
"C[C@]12CC[C@H]3[C@@H](C[C@H]4OC[C@@]35CCC(=O)C=C45)[C@@H]1CC[C@@H]2C(=O)CO [21OH-6OP, 21-hydroxy-6,19-oxidoprogesterone]",competition with (^3 H)-ALDO for MR / interaction with MR,"kidney cytosol, 5 nM (^3 H)-ALDO, 1.0 μM RU28362","unable to cross-react with uterus-PR or kidney-MR; also recorded: does not compete efficiently with (^3 H)-ALDO for MR, even when a thousand fold excess was added; also recorded: no ability to interact with MR nor PR"
same,change of binding to MR by 21-hydroxyl introduction,"vs 6,19-oxidopregnane skeleton, panel 2-C","does not improve the binding of the 6,19-oxidopregnane skeleton to MR"
